# Measured values as given in patent EP0330218B1, “Inhibitors of lysyl oxidase” (MERRELL DOW PHARMACEUTICALS INC., priority 1988, dated 1989).
# Target: T1, Lysyl oxidase (Bos taurus, UniProt P33072)
# T1 construct: The supernatant with lysyl oxidase activity is saved; from tissue; host or cells: bovine aorta (4 M urea extract)
# T1 sequence (P33072 170-418): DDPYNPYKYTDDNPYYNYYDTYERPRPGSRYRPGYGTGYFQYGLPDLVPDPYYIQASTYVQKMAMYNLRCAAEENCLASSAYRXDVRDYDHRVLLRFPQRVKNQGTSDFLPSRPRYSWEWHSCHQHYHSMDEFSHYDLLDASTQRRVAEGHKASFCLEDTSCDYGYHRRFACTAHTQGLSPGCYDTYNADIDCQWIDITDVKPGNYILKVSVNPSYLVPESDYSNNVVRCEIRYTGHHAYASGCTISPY
# Experiment: Lysyl oxidase inhibition assay (fluorometric, cadaverine substrate, homovanillic acid/horseradish peroxidase)
# Type: biochemical
# Conditions: lysyl oxidase preparation from bovine aorta, 10 minutes at 55°C, borate buffer pH = 8.2, read-out: IC₅₀
# Protocol: Lysyl oxidase preparation is obtained from bovine aorta by the procedures modified from M. A. Williams and H. M. Kagan, Anal. Biochem. 149, 430 - 437 (1985) and H. M. Kagan and K. A. Sullivan, Methods in Enzyml. 82, 637 - 650 (1982). The aorta is obtained fresh on the day of the enzyme preparation and is maintained at 4°C for the duration of its use in the experiments. The aorta is ground fine and is homogenized for 90 seconds in buffer (2.5 ml of a buffer consisting of 16 mM potassium phosphate and 1 mM phenylmethylsulfonyl fluoride/g of tissue) with 0.15 M NaCl added, then the mixture is centrifuged (20 minutes at 11,000 x g). The homogenization followed by centrifugation procedure is repeated with buffer plus 0.15 M NaCl, buffer alone, and buffer plus 1 M urea. After homogenization in 1 M urea, the mixture is stirred for 1 hour prior to centrifugation. The resulting pellet is homogenized in buffer plus 4 M urea, stirred for 18 hours, and centrifuged. The supernatant with lysyl oxidase activity is saved. The tissue is homogenized in buffer plus 4 M urea, stirred overnight, and centrifuged twice more. The supernatants with lysyl oxidase activity are saved.
# The assay is adopted from that of P. C. Trackman, et al., Anal. Biochem. 113, 336 - 342 (1981). Each assay consists of two tubes, one that contains 0.2 mM β-aminopropionitrile, BAPN, from the start and one to which BAPN is added to quench the reaction. Lysyl oxidase preparation (0.150 ml), urea (0.300 ml, 4 M), buffer (0.930 ml, 200mM borate at pH = 8.2), homovanillic acid (0.020 ml of 50 mM solution), and horseradish peroxidase (0.010 ml of Sigma Type II at 5 mg/ml protein) are incubated for 2 minutes at 55°C in a test tube. Cadaverine (0.100 ml of 150 mM) and test compound, if any, is added and the incubation continued at 55°C for an additional 10 minutes. The test tubes containing this mixture are then cooled in a ice bath after adding BAPN to any tubes not containing it. The difference in fluorescence (excitation 315 nm and emission 425 nm) between corresponding tubes that received BAPN at 0 minutes and at 10 minutes is a measure of enzyme activity. A standard curve to determine the amount of cadaverine converted by lysyl oxidase is prepared as follows. Assay mixtures containing BAPN are made up as described and known amounts of hydrogen peroxide are added simultaneously with cadaverine and the fluorescence changes after 10 minutes reaction are determined.
# Using this method the lysyl oxidase inhibiting activity expressed as IC₅₀ (inhibitory concentration), that is the concentration of test compound required to inhibit the enzyme activity by 50 per cent, was determined for various compounds of this invention.
row,SMILES,IC50 [nM]
1,"COc1ccc(/C(=C\F)CN)cc1OC [(E)-2-(3,4-Dimethoxyphenyl)-3-fluoroallylamine]",100
2,"COc1ccc(CCC/C(=C\F)CN)cc1OC [(E)-2-(3,4-Dimethoxyphenylpropyl)-3-fluoroallylamine]",0.1
3,NC/C(=C/F)CCc1ccc(F)cc1 [(E)-2-(4-Fluorophenethyl)-3-fluoroallylamine],0.1
4,NC/C(=C\F)CSc1ccccc1 [(E)-2-(Thiophenoxymethyl)-3-fluoroallylamine],0.1
5,CC(C)C/C(=C\Cl)CN [(E)-2-Isobutyl-3-chloroallylamine],100
6,CC(C)C/C(=C\F)CN [(E)-2-Isobutyl-3-fluoroallylamine],10
7,NC/C(=C/Cl)CCc1ccccc1 [(E)-2-Phenethyl-3-chloroallylamine],10
8,NC/C(=C/Cl)c1ccccc1 [(E)-2-Phenyl-3-chloroallylamine],100
9,NC/C(=C/F)c1ccccc1 [(E)-2-Phenyl-3-fluoroallylamine],1
10,CCCCCCCCCCC/C(=C\F)CN [(E)-2-Undecyl-3-fluoroallylamine],100
11,"CCNC/C(=C/F)c1ccc(OC)c(OC)c1 [(E)-N-Ethyl-2-(3,4-dimethoxyphenyl)-3-fluoroallylamine]",1000
12,NC/C(=C/F)c1cccs1 [(Z)-2-(2-Thienyl)-3-fluoroallylamine],1
13,"NC/C(=C/F)COc1ccc(Cl)c(Cl)c1 [(Z)-2-(3,4-Dichlorophenoxymethyl)-3-fluoroallylamine]",1
